Data from the METLIN SMRT retention time set (Domingo-Almenara et al. 2019).

Test: gradient 5% acetonitrile 3 min, to 50% in 2 min, to 85% in 15 min, held 3 min, 100 µL/min
Conditions: column: Zorbax Extend-C18 2.1 x 50 mm; eluents: water / acetonitrile, 0.1% formic acid
Summary of the method: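 Values are retention times taken from adduct peaks that software picked and an analyst inspected. The pure standards were run as mixtures of ~100 molecules on HPLC linked to a quadrupole time-of-flight mass spectrometer, in positive and negative ionization mode. A Zorbax Extend-C18 column (2.1 × 50 mm, 1.8 μm) was used at 100 μL/min with water and acetonitrile, each including 0.1% formic acid.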

Compound	RP-LC retention time [s]
Cc1ccc(F)cc1NC(=O)Cn1cnc2nc(N3CCCC(C(=O)NC4CC4)C3)sc2c1=O (centres undefined)	686
CC(=O)NNC(=O)N1Cc2ccccc2Oc2ccc(Cl)cc21	843
CCNc1cc(N2CCC(CCC(=O)NCc3nc4ccccc4n3C)CC2)ncn1	554
COc1ccccc1-c1noc(C2CCCN2C(=O)Nc2cccc(F)c2)n1 (centres undefined)	894
Cc1cnn(Cc2cc(C(=O)N3C[C@@H](CO)[C@H](N(C)C)C3)no2)c1	566
CCCC(=O)Nc1ccc2c(c1)CN(C(=O)c1ccccc1)C(C(=O)N(C)C)C2 (centres undefined)	671
O=C(Cn1cccc(-c2nc(-c3ccc(Br)cc3)no2)c1=O)Nc1ccc(F)cc1	980
COc1ccc(Nc2c(C(=O)N3CCCC(C)C3)cnc3nc(C)ccc23)cc1OC (centres undefined)	610
CCN1C(=O)c2cccnc2Sc2cc(NC(=O)c3ccccn3)ccc21	802
Cc1cc(NC(=O)C2CCN(C(=O)CSc3nnnn3C)CC2)no1	607
CC(C)(C)NCC(O)COc1ccc(NC(=O)NC2CCCCC2)cc1 (centres undefined)	628
CCS(=O)(=O)N1CC(=O)N(c2ccc(F)cc2C)C(C)(C(=O)NC2CCCC2)C1 (centres undefined)	805
CC1CCN(C(=O)CC2CCN(S(=O)(=O)c3ccc(Cl)s3)CC2)CC1	1040
COc1ccc(NC(=O)C2c3ccccc3C(=O)N3CCc4cc(OC)c(OC)cc4C23)c(OC)c1 (centres undefined)	814
CN(C)C(CNC(=O)c1cc(=O)c2ccccc2o1)c1cn(C)c2ccccc12 (centres undefined)	554
CC1CCCN(S(=O)(=O)c2ccc(-n3cnc(C(=O)N4CCCCC4)c3)nc2)C1 (centres undefined)	881
O=C(NCc1cccnc1)c1nnc(-c2ccc(S(=O)(=O)N3CCCC3)cc2)o1	616
O=C(Nc1ccccc1F)C1CCCN(S(=O)(=O)c2c[nH]c(C(=O)N3CCCC3)c2)C1 (centres undefined)	772
CC(C)c1cc(=O)n(CC(=O)Nc2cccc(-c3cn4c(n3)SCC4)c2)cn1	568
CCCn1c(=O)c(-c2ccc(C(=O)NC(C)C)cc2)nc2cccnc21	894
O=C(Cn1cnc(-c2nc(-c3ccccc3)cs2)c1)N1CCN(c2ccccc2)CC1	853
Cc1ccc2c(C)nc(Nc3ncc4c(n3)CCCC4=O)nc2c1	598
Cc1cc(C2CCCN2C(=O)CCc2ccccc2)no1 (centres undefined)	760

Compound	RP-LC retention time [s]
Cc1ccc2c(C(=O)Nc3ccc(N4CCOCC4)cc3)cc(NC(=O)C(C)C)cc2n1	618
COc1ccc2nc(C(=O)NCc3ccc(Br)cc3)cn2n1	879
COc1ccc(C(O)CN2CCN(c3cccc(OC)c3)CC2)cc1 (centres undefined)	647
CCOc1cccc(-c2noc(CCn3nc(-c4ccc5c(c4)OCO5)ccc3=O)n2)c1	978
CCc1nc2cc(N3CCC(C(=O)Nc4ccc(OC)c(OC)c4)CC3)cnc2nc1CC	766
O=C(Nc1nc(C(=O)NCc2nc(-c3ccccc3)no2)co1)c1ccsc1	707
COC(=O)c1ccc(NC(=O)NCc2noc3ccccc23)cc1	824
CCn1cc(S(=O)(=O)N2CC(Oc3ccc(-c4nc(C)no4)cc3)C2)cn1	844
O=S(=O)(c1cc(-c2nnc(C3CC3)o2)co1)N1CCOCC1	730
CCn1c(=O)c(N2CCN(C(=O)Nc3ccc(Br)cc3)CC2)nc2ccccc21	1030
CCOc1ccc(N2CCn3c2nnc(C(=O)NCC2CCCO2)c3=O)cc1 (centres undefined)	637
O=C(Nc1ccnn1Cc1ccccc1)c1cc(=O)c2cc(Cl)ccc2o1	867
Cc1ccc(-n2ccnc(NC(=O)Nc3cccc(F)c3)c2=O)cc1C	1070
O=C(NCC1CCCO1)c1ccc(NC(=O)C2CCC2)cc1N1CCCCC1 (centres undefined)	617
CC(C)N(CC(=O)N1CCNCC1)C(=O)c1cccc(Br)c1	573
Cc1oc(-c2ccc(NC(=O)C3CCCO3)cc2)nc1Cn1cccn1 (centres undefined)	774
O=C(O)/C=C/C(=O)Nc1cccc2cccnc12	751
CC(C)c1ccc(S(=O)(=O)Nc2cnc(N3CCNCC3)c(C(=O)NCC3CCCO3)c2)cc1 (centres undefined)	643
COc1ccc2c(C)c(CC(=O)N3CCC(C(N)=O)CC3)c(=O)oc2c1OC	622
CCOc1ccccc1NC(=O)N1CCC2(CC1)NC(=O)c1cc(C)ccc1N2C	872
C=CCn1c(-c2ccc(OC)cc2)nc2nc3ccccc3nc21	813
CC(=O)Nc1ccc(C(=O)Nc2ccccc2N)cc1	629
O=C(NCc1ccco1)c1csc(N2CCN(c3ccc(Cl)cc3)CC2)n1	1090

Compound	RP-LC retention time [s]
COc1cccc(-c2noc(C3CCCN3C(=O)Nc3ccc(OC)cc3OC)n2)c1 (centres undefined)	941
O=S(=O)(c1c[nH]c2ncccc12)N1CCc2ccccc21	763
COc1cccc(C(=O)Nc2cccn3ncnc23)c1	710
CCOC(=O)c1c(C)[nH]c(C(=O)N2CCC(CC(=O)NCc3ccc(OC(C)C)cc3)CC2)c1C	866
CS(=O)(=O)Nc1ccc(-c2noc(-c3ccc4c(c3)OCO4)n2)cc1	897
Cc1ccc(C)c(NC(=O)C(=O)NCC(c2ccc3c(c2)OCO3)N2CCN(C)CC2)c1 (centres undefined)	702
Cc1ccn2cc(-c3ccc(NS(=O)(=O)c4cccc(F)c4)cc3)nc2n1	651
Cn1cc(S(=O)(=O)N2CCCCC2)cc1C(=O)Nc1cccc(F)c1	1020
CCc1ccc(NC(=O)CN2C(=O)C3CCCCN3c3ccc(S(=O)(=O)N(C)C)cc32)cc1 (centres undefined)	817
COc1cccc(-c2nc(Cn3ccnc3)no2)c1	601
CCCNC(=O)C1CCN(c2ccc(SCC(=O)Nc3cc(F)ccc3C)nn2)CC1	667
O=c1[nH]c2ccc(O)cc2o1	563
N#Cc1cc2c(OCC(O)CN3CCN(C(c4ccccc4)c4ccccc4)CC3)cccc2[nH]1 (centres undefined)	819
CC(C)c1ccc(S(=O)(=O)N2CCC(C(=O)NCCc3csc(-c4ccccc4)n3)CC2)cc1	1080
CCn1cc2c3c(cccc31)CN(C(=O)Nc1ccc(Cl)cc1F)CC2	1050
CSc1cccc(NC(=O)N2CCc3nc(-c4ccccc4)ncc3C2)c1	955
CCc1nncn1C1CCN(S(=O)(=O)c2ccc(Cl)c(C)c2)CC1	716
CSc1cccc(NC(=O)N2CCc3c(c(C(=O)N4CCCC4)nn3C)C2)c1	971
COc1cccc(NS(=O)(=O)c2c[nH]c3ncccc23)c1	688
CCCNC(=O)C1CCN(c2ccc(SCC(=O)Nc3ccc4c(c3)OCCO4)nn2)CC1	626
CCN1CCCn2cc(S(=O)(=O)Nc3ccc(Cl)cc3F)cc2C1=O	763
CCc1nc2ccc(-c3noc(CNC(=O)c4ccccc4)n3)cc2n1CC	637
Cc1ccc(Nc2cc(C)nc(N3CCN(C(=O)c4ccco4)CC3)n2)cc1	590

Compound	RP-LC retention time [s]
COc1ccc(N2CCN(C(=O)c3cc(NC(C)=O)cc4nc(C)ccc34)CC2)cc1	603
CCN1C(=O)c2cccnc2Sc2cc(CNC(=O)Cc3cccc(F)c3)ccc21	761
O=C(Cc1ccc(F)cc1)Nc1ccc2cn[nH]c2c1	688
CCN(CC)c1nc2cc(C(=O)OC)ccc2c(=O)n1Cc1ccc(F)cc1	1180
Cc1ccc(S(=O)(=O)NC(C)c2nc(-c3ccc(-c4csc(C)n4)cc3)no2)cc1 (centres undefined)	1020
CCn1cnc(S(=O)(=O)N2CCCC(C(=O)Nc3ccc(C)cc3C)C2)c1 (centres undefined)	753
C=CCN1C(=O)COc2ccc(-c3csc(NC(=O)CCCC)n3)cc21	953
CCCc1cc(N2CCN(C(=O)Cc3ccsc3)CC2)nc2nnc(C)n12	627
O=C(C1CCN(c2cnc(N3CCOCC3)nc2)CC1)N1CCCCC1	646
COc1ccc(N2CCN(C(=O)c3cc4cc5cc(OC)ccc5nc4o3)CC2)cc1	829
Cc1nc(-c2csc(S(=O)(=O)N3CCCC(C(=O)Nc4ccc5c(c4)OCCO5)C3)c2)no1 (centres undefined)	880
CCCn1cc(-c2ccncc2)cc1C(=O)NC1CCCCC1	685
CCn1nccc1-c1cccc(-c2noc(C3(c4ccc(OC)cc4)CC3)n2)c1	1240
COc1cccc(NC(=O)Cn2ncc3c(c2=O)N(CC2CC2)C(=O)CS3)c1	775
CCOC(=O)C(C)Sc1nnc(NC(=O)C2CC2)s1 (centres undefined)	708
CCCNC(=O)C1CCN(c2ccc(SCC(=O)Nc3ccc(C(F)(F)F)cc3)nn2)CC1	728
Cc1cc(Cl)ccc1OCC(=O)Nc1nc(-c2cccc3ccccc23)cs1	1310
Cc1cc(F)ccc1NS(=O)(=O)c1c[nH]c2ncccc12	735
Fc1cnccc1CN1CC2(CCCCC2)CC1COc1ccncc1 (centres undefined)	747
CC(=O)N(C)CCc1noc(C2CN(C(=O)c3c(C)noc3C)C2)n1	595
